The source of these data is ChEMBL document CHEMBL1201862, “PubChem BioAssay data set” (2004).

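Each compound was tested at five concentrations against cells in 96-well plates for 48 hours. GI50: concentration for 50% inhibition of growth.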 Active and inactive are the calls of the source. No stated cut-off is given here; in the data, active = GI50 up to about 1.1 µM and inactive = higher. Non-standard residues stand in square brackets, D forms with d. Residues, ends and D or L forms follow the SMILES beside them. Ava = NCCCCC(=O)O; Mpa = O=C(O)CCS

Assay in all cases: NCI anticancer screen, dose series, 48 h
For assay [1], the system named is HT-29.
Assay [2] relates to MCF7.
Assay [3] deals with IGROV-1.
Assay [4] concerns U-251.
Assay [5] concerns RPMI-8226.
In assay [6] the test system is NCI-H23.
Assay [7] has as its system SK-MEL-28.
The test system of assay [8] is ACHN.
Assay [9] concerns SNB-75.
In assay [10] the test system is DU-145.
Assay [11] concerns Hs-578T.
In assay [12] the test system is M14.
For assay [13], the system named is OVCAR-8.
The subject of assay [14] is 786-0.
Assay [15] relates to HOP-92.
Assay [16] concerns UACC-257.
In assay [17] the test system is BT-549.
Assay [18] deals with MDA-MB-231.
The test system of assay [19] is NCI-H522.

In the case of `COc1ccc(Cc2nc3cc(C(F)(F)F)ccc3n2C[C@@H]2CCCN3CCCCC23)cc1` (stereo not given in full), the GI50 in [1] is 5.06 µM (inactive); in [2], 8.34 µM (inactive); in [3], 5.42 µM (inactive); in [4] it was 13.2 µM (inactive); in assay [5], 11.6 µM (inactive); in assay [6], 14.6 µM (inactive). The GI50 in [7] is 13 µM (inactive); in [8], 6.75 µM (inactive); in assay [9], 27.4 µM (inactive); in assay [10], 11 µM (inactive); in assay [11], 19.9 µM (inactive); in [12], 2.72 µM (inactive). The GI50 in assay [13] is 15.3 µM (inactive); in assay [14], 5.55 µM (inactive); in assay [15], 5.62 µM (inactive); in [16] it was 2.46 µM (inactive); in assay [17], 13.8 µM (inactive); in assay [18], 11 µM (inactive). The GI50 in assay [19] was 7 µM (inactive).
In the case of `CC(NC(=O)CCS)C(=O)NC(C)C(=O)NC(Cc1c[nH]c2ccccc12)C(=O)NC(Cc1c[nH]cn1)C(=O)NC(CO)C(=O)NC(Cc1c[nH]c2ccccc12)C(=O)NCCCCC(=O)NC(C)C(=O)NC(CCC(N)=O)C(=O)NC(CCCCN)C(=O)NC(C)C(=O)NC(CCCNC(=N)N)C(=O)NC(CCCCN)C(N)=O` (stereo not given) ([Mpa]AAWHSW[Ava]AQKARK-NH2; configuration not given here), the GI50 is > 100 µM (inactive) in assay [1]; > 100 µM (inactive) in [2]; > 100 µM (inactive) in [3]; 43.2 µM (inactive) in [4]; > 100 µM (inactive) in assay [5]; > 100 µM (inactive) in assay [6]. For the same compound, the GI50 in assay [7] was 34.7 µM (inactive); in assay [8] it was > 100 µM (inactive); in assay [9], > 100 µM (inactive); in [10] it was 87.9 µM (inactive); in assay [11] it was > 100 µM (inactive); in [12] it was > 100 µM (inactive). The GI50 in [13] was 90.2 µM (inactive); in [14], 31.6 µM (inactive); in assay [15], > 100 µM (inactive); in [16], 24.2 µM (inactive); in assay [17], > 100 µM (inactive); in [18], > 100 µM (inactive). Also, in [19], the GI50 was > 100 µM (inactive).
In the case of `COC(=O)c1c(C)cccc1C1CN=NC12Cc1c(C)cccc1C2=O` (stereo not given), the GI50 in assay [1] was 90.2 µM (inactive); in assay [2], 55.2 µM (inactive); in [3], > 100 µM (inactive); in [4] it was > 100 µM (inactive); in assay [5], 46.5 µM (inactive); in [6] it was 60 µM (inactive). For the same compound, the GI50 is > 100 µM (inactive) in assay [7]; 79.3 µM (inactive) in assay [8]; 64.1 µM (inactive) in [9]; > 100 µM (inactive) in assay [10]; 80.2 µM (inactive) in assay [11]; 83.2 µM (inactive) in [12]. Also, the GI50 was 44.7 µM (inactive) in [13]; > 100 µM (inactive) in [14]; 19.9 µM (inactive) in [15]; 43.4 µM (inactive) in assay [16]; > 100 µM (inactive) in assay [17]; 82.8 µM (inactive) in assay [18]. The GI50 in assay [19] is 24.9 µM (inactive).
Regarding `COc1cc(O)cc2oc(-c3ccc(O)cc3)cc(=O)c12`, the GI50 in assay [1] was > 100 µM (inactive); in [2] it was > 100 µM (inactive); in assay [3], 47.3 µM (inactive); in [4] it was 71.4 µM (inactive); in assay [5], 66.1 µM (inactive); in assay [6], > 100 µM (inactive). Besides, the GI50 is > 100 µM (inactive) in assay [7]; 64.7 µM (inactive) in assay [8]; 14 µM (inactive) in assay [9]; > 100 µM (inactive) in assay [10]; 57 µM (inactive) in [11]; > 100 µM (inactive) in [12]. Further, the GI50 in assay [13] is 34.4 µM (inactive); in [14], 68.4 µM (inactive); in [15] it was 71.9 µM (inactive); in [16], > 100 µM (inactive); in assay [17], 47.1 µM (inactive); in assay [18], > 100 µM (inactive). For the same compound, in assay [19], the GI50 is 22.2 µM (inactive).
As for `CC(=O)O[C@H]1CC[C@@]2(C)C(=CC[C@@H]3[C@@H]2CC[C@]2(C)c4nc(N)c(C#N)cc4C[C@@H]32)C1`, the GI50 in [1] is 9.82 µM (inactive); in assay [2], 33.6 µM (inactive); in [3] it was 34.3 µM (inactive); in assay [4], 43.9 µM (inactive); in assay [5], 5.83 µM (inactive); in assay [6], 35 µM (inactive). Further, the GI50 is 40 µM (inactive) in assay [7]; 26.4 µM (inactive) in [8]; 7.96 µM (inactive) in assay [9]; 40.7 µM (inactive) in assay [10]; 24.9 µM (inactive) in [11]; > 87.5 µM (inactive) in assay [12]. Further, the GI50 in assay [13] is 30.3 µM (inactive); in assay [14] it was 28.7 µM (inactive); in assay [15] it was 33 µM (inactive); in assay [16], 27.2 µM (inactive); in assay [17], 33.3 µM (inactive); in assay [18] it was 44.2 µM (inactive). In addition, the GI50 in assay [19] was 12.6 µM (inactive).
Consider `COC(=O)c1scc(N)c1-n1ccc(=O)[nH]c1=O`, for which the GI50 in assay [1], in assay [2], in assay [3], in assay [4], in [5] and in [6] was > 100 µM (inactive) each time. Moreover, the GI50 in assay [7], in [8], in [9], in [10], in assay [11] and in assay [12] was > 100 µM (inactive) throughout. The GI50 in assay [13], in assay [14], in assay [15], in assay [16], in assay [17] and in assay [18] was > 100 µM (inactive) throughout. For the same compound, the GI50 in assay [19] is > 100 µM (inactive).
For the compound `COc1ccc(C(=O)NC2=C(Cl)C(=O)c3ccccc3C2=O)cc1`, the GI50 in assay [1] is 4.41 µM (inactive); in assay [2], 2.75 µM (inactive); in assay [3] it was 2.52 µM (inactive); in assay [4], 0.977 µM (active); in [5] it was 0.579 µM (active); in assay [6], 1.6 µM (inactive). For the same compound, the GI50 is 1.15 µM (inactive) in assay [7]; 0.472 µM (active) in assay [8]; 2.56 µM (inactive) in assay [9]; 3.86 µM (inactive) in [10]; 3.08 µM (inactive) in assay [11]; 1.05 µM (active) in [12]. The GI50 was 3.32 µM (inactive) in [13]; 5.36 µM (inactive) in assay [14]; 1.36 µM (inactive) in assay [15]; 1.71 µM (inactive) in [16]; 2.02 µM (inactive) in assay [17]; 2.36 µM (inactive) in assay [18]. Further, the GI50 in [19] is 0.416 µM (active).
Turning to `CCSc1nn(-c2c3ccccc3nc3ccccc23)c(=S)s1`, the GI50 in assay [1], in assay [2], in assay [3], in assay [4], in assay [5] and in [6] was > 100 µM (inactive) throughout. In addition, the GI50 in assay [7] was > 100 µM (inactive); in [8], > 100 µM (inactive); in assay [9], 61.9 µM (inactive); in [10], > 100 µM (inactive); in [11] it was > 100 µM (inactive); in [12], > 100 µM (inactive). Also, the GI50 in [13], in assay [14], in assay [15], in [16], in assay [17] and in assay [18] was > 100 µM (inactive) in each case. Further, the GI50 in [19] is > 100 µM (inactive).
As for `CC(=O)Oc1ccccc1C(=O)Nc1ncc([N+](=O)[O-])s1` [NITAZOXANIDE], the GI50 in assay [1] is 15.5 µM (inactive); in assay [2], 10.2 µM (inactive); in assay [3] it was 16.3 µM (inactive); in assay [4], 19.4 µM (inactive); in [5], 10.3 µM (inactive); in assay [6], 9.73 µM (inactive). Also, the GI50 was 11.6 µM (inactive) in assay [7]; 20.4 µM (inactive) in [8]; 10.2 µM (inactive) in assay [9]; 20.1 µM (inactive) in assay [10]; 9.2 µM (inactive) in assay [11]; 15.9 µM (inactive) in assay [12]. The GI50 is 15.7 µM (inactive) in [13]; 26.7 µM (inactive) in assay [14]; 3.22 µM (inactive) in [15]; 17.2 µM (inactive) in assay [16]; 14.4 µM (inactive) in assay [17]; 21.8 µM (inactive) in assay [18]. Moreover, the GI50 in assay [19] was 2.86 µM (inactive).
`COc1ccc(CCCCl)c(C2=NCCc3cc(OC)c(OC)cc32)c1`: the GI50 in assay [1] is 36.1 µM (inactive); in assay [2] it was 41.5 µM (inactive); in assay [3] it was 39.9 µM (inactive); in [4], 23.6 µM (inactive); in [5], 6.87 µM (inactive); in assay [6] it was 31.5 µM (inactive). For the same compound, the GI50 in [7] is 63.2 µM (inactive); in assay [8], 68.1 µM (inactive); in assay [9], 42.3 µM (inactive); in assay [10], > 100 µM (inactive); in assay [11], 32.7 µM (inactive); in assay [12], 43.9 µM (inactive). The GI50 was 25.6 µM (inactive) in assay [13]; 94.8 µM (inactive) in assay [14]; 20.6 µM (inactive) in assay [15]; 42.3 µM (inactive) in assay [16]; 37.8 µM (inactive) in [17]; 69.3 µM (inactive) in assay [18]. Besides, in [19], the GI50 is 28.8 µM (inactive).
